PMC8296573, “Synthesis and Biological Evaluation of Fingolimod Derivatives as Antibacterial Agents” (ACS Omega, 2021)
≈ marks a conversion by molar mass, not a printed value. Like-named read-outs stand apart in the source and are kept apart here.

Experiments:
[1] = tested on: A. baumannii NCTC 13423; experiment: Antibacterial activity, pre-exposure; type: cell-based, Acinetobacter baumannii; settings: for Average inhibition %, biofilms viability / Average inhibition %, planktonic cells viability / inhibition at 10 µM / inhibition at 15 µM / inhibition at 25 µM / inhibition at 50 µM: A. baumannii NCTC 13423, pre-exposure, ± SD; for inhibition at 10 µM / inhibition at 15 µM / inhibition at 25 µM / inhibition at 50 µM: Acinetobacter baumannii, NCTC13423
Procedure, shortened: (§1)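 Read-outs were turbidity and resazurin reduction for planktonic cells, and resazurin followed by crystal violet biomass (A595) for biofilms. Compounds were present from inoculation onward, with 18 h aerobic growth at 37 °C under shaking.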

[2] = tested on: S. aureus ATCC 25923; experiment: Antibacterial activity, post-exposure on preformed 18-h-old biofilms; type: cell-based, Staphylococcus aureus; settings: ± SD; for inhibition at 25 µM / inhibition at 50 µM / inhibition at 100 µM / inhibition at 200 µM: Staphylococcus aureus; for inhibition at 25 µM: ATCC25923, 25 µM; for inhibition at 50 µM: ATCC25923, 50 µM; for inhibition at 100 µM: ATCC25923, 100 µM; for inhibition at 200 µM: ATCC25923, 200 µM
Procedure, shortened: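 Biofilms grown 18 h without compound, medium then replaced and compound added for a further 24 h. Planktonic OD and resazurin (20 μM final) fluorescence (ex 560/em 590 nm) read; washed biofilms stained with 20 μM resazurin 30 min at 37 °C, then ethanol-fixed and crystal violet-stained, absorbance 595 nm.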

[3] = tested on: P. aeruginosa ATCC 9027; experiment: Antibacterial activity, pre-exposure; type: cell-based, Pseudomonas aeruginosa; settings: for Average inhibition %, biofilms viability / Average inhibition %, planktonic cells viability / inhibition at 50 µM / inhibition at 100 µM / inhibition at 150 µM / inhibition at 200 µM: P. aeruginosa ATCC 9027, pre-exposure, ± SD; for inhibition at 50 µM / inhibition at 100 µM / inhibition at 150 µM / inhibition at 200 µM: Pseudomonas aeruginosa, ATCC9027
Procedure, shortened: as §1

[4] = tested on: S. aureus ATCC 25923; experiment: Antibacterial activity, pre-exposure (planktonic cells and biofilm formation); type: cell-based, Staphylococcus aureus; settings: for MIC / inhibition at 5 µM / inhibition at 10 µM / inhibition at 15 µM / inhibition at 25 µM: Staphylococcus aureus, ATCC25923; for inhibition at 5 µM / inhibition at 10 µM / inhibition at 15 µM / inhibition at 25 µM / Average inhibition %, biofilms viability / Average inhibition %, planktonic cells viability: pre-exposure, ± SD
Procedure, shortened: as §1

[5] = 10 µM, read-out: Average inhibition %, biofilms biomass
[6] = 10 µM, read-out: Average inhibition %, planktonic cells turbidity
[7] = 15 µM, read-out: Average inhibition %, biofilms biomass
[8] = 15 µM, read-out: Average inhibition %, planktonic cells turbidity
[9] = 25 µM, read-out: Average inhibition %, biofilms biomass
[10] = 25 µM, read-out: Average inhibition %, planktonic cells turbidity
[11] = 50 µM, read-out: Average inhibition %, biofilms biomass
[12] = 50 µM, read-out: Average inhibition %, planktonic cells turbidity
[13] = read-out: Average inhibition %, biofilms biomass
[14] = read-out: Average inhibition %, planktonic cells turbidity

For `CCCCCCCCCCc1ccc2nc(CCC(N)(CO)CO)ccc2c1` [Compound 81, 2-Amino-2-[2-(6-decylquinolin-2-yl)ethyl]propane-1,3-diol], the “Average inhibition %, biofilms viability” value ([1]; 10 µM) was 0 ± 0%, the “Average inhibition %, planktonic cells viability” value ([1]; 10 µM) was 7.5 ± 7.6% and the “Average inhibition %, biofilms viability” value ([1]; 15 µM) was 0 ± 0%. For the same compound, the “Average inhibition %, planktonic cells viability” value ([1]; 15 µM) was 5.8 ± 6.2%, the “Average inhibition %, biofilms viability” value ([1]; 25 µM) was 0 ± 0% and the “Average inhibition %, planktonic cells viability” value ([1]; 25 µM) was 2.6 ± 2.1%. For the same compound, the “Average inhibition %, biofilms viability” value ([1]; 50 µM) was 0.8 ± 1.4%, the “Average inhibition %, planktonic cells viability” value ([1]; 50 µM) was 2.6 ± 3.8% and the inhibition at 10 µM [1, 5] was 0%. It also gave an inhibition at 10 µM [1, 6] of 0.2 ± 0.5%, an inhibition at 15 µM [1, 7] of 2.1 ± 3.6% and an inhibition at 15 µM [1, 8] of 0%. The inhibition at 25 µM [1, 9] was 3.6 ± 6.2%, the inhibition at 25 µM [1, 10] was 0% and the inhibition at 50 µM [1, 11] was 5.6 ± 5.9%. The inhibition at 50 µM [1, 12] was 0.5 ± 0.9%, the “MIC A. baumannii NCTC 13423” value ([1]; pre-exposure, Inactive = no activity up to 50 μM, > = some inhibition but no MIC reached) was “Inactive” and the “Average inhibition %, biofilms viability” value ([2]; 25 µM) was 6.4 ± 8.2%. The “Average inhibition %, planktonic cells viability” value ([2]; 25 µM) was 8.8 ± 7.7%, the “Average inhibition %, biofilms viability” value ([2]; 50 µM) was 18.3 ± 16.6% and the “Average inhibition %, planktonic cells viability” value ([2]; 50 µM) was 6.9 ± 10.4%. For the same compound, the “Average inhibition %, biofilms viability” value ([2]; 100 µM) was 20.9 ± 18.1%, the “Average inhibition %, planktonic cells viability” value ([2]; 100 µM) was 28.8 ± 17.2% and the “Average inhibition %, biofilms viability” value ([2]; 200 µM) was 20.1 ± 16%. For the same compound, the “Average inhibition %, planktonic cells viability” value ([2]; 200 µM) was 7.8 ± 11.1%, the inhibition at 25 µM [2, 13] was 9.7 ± 8.6% and the inhibition at 25 µM [2, 14] was 22.7 ± 32.9%. The inhibition at 50 µM [2, 13] was 28.5 ± 12.5%, the inhibition at 50 µM [2, 14] was 10 ± 17.4% and the inhibition at 100 µM [2, 13] was 34.6 ± 8.2%. The inhibition at 100 µM [2, 14] was 19 ± 22.4%, the inhibition at 200 µM [2, 13] was 25 ± 11.6% and the inhibition at 200 µM [2, 14] was 11.2 ± 16.9%. The “Average inhibition %, biofilms viability” value ([3]; 50 µM) was 4.9 ± 5.2%, the “Average inhibition %, planktonic cells viability” value ([3]; 50 µM) was 10.9 ± 9.5% and the “Average inhibition %, biofilms viability” value ([3]; 100 µM) was 3.8 ± 4.9%. The “Average inhibition %, planktonic cells viability” value ([3]; 100 µM) was 20.3 ± 12.9%, the “Average inhibition %, biofilms viability” value ([3]; 150 µM) was 7.9 ± 11.7% and the “Average inhibition %, planktonic cells viability” value ([3]; 150 µM) was 16.3 ± 5.7%. The “Average inhibition %, biofilms viability” value ([3]; 200 µM) was 0.3 ± 0.5%, the “Average inhibition %, planktonic cells viability” value ([3]; 200 µM) was 17 ± 16.2% and the inhibition at 50 µM [3, 11] was 3.6 ± 4.6%. The inhibition at 50 µM [3, 12] was 29.2 ± 5.8%, the inhibition at 100 µM ([3]; 100 µM, read-out: Average inhibition %, biofilms biomass) was 0% and the inhibition at 100 µM ([3]; 100 µM, read-out: Average inhibition %, planktonic cells turbidity) was 41.2 ± 11.2%. The inhibition at 150 µM ([3]; 150 µM, read-out: Average inhibition %, biofilms biomass) was 4 ± 7%, the inhibition at 150 µM ([3]; 150 µM, read-out: Average inhibition %, planktonic cells turbidity) was 38.2 ± 12.2% and the inhibition at 200 µM ([3]; 200 µM, read-out: Average inhibition %, biofilms biomass) was 0.7 ± 0.6%. For the same compound, the inhibition at 200 µM ([3]; 200 µM, read-out: Average inhibition %, planktonic cells turbidity) was 30.5 ± 8.3%, the “MIC P. aeruginosa ATCC 9027” value ([3]; pre-exposure, Inactive = no activity up to 200 μM, > = some inhibition but no MIC reached) was “Inactive” and the MIC ([4]; lowest concentration with no visible growth (>90% inhibition of turbidity and viability of planktonic cells), 18 h, read-out: MIC S. aureus ATCC 25923) was 10 to 15 µM (≈ 3.87 to 5.8 µg/mL). It also gave an inhibition at 5 µM ([4]; 5 µM, read-out: Average inhibition %, biofilms biomass) of 28.1 ± 33.9%, an inhibition at 5 µM ([4]; 5 µM, read-out: Average inhibition %, planktonic cells turbidity) of 33.4 ± 30.9% and an inhibition at 10 µM [4, 5] of 66 ± 27.6%. It also gave an inhibition at 10 µM [4, 6] of 57.3 ± 36.4%, an inhibition at 15 µM [4, 7] of 98.4 ± 0.3% and an inhibition at 15 µM [4, 8] of 99.3 ± 0.2%. For the same compound, the inhibition at 25 µM [4, 9] was 97.3 ± 0.1%, the inhibition at 25 µM [4, 10] was 98.6 ± 0.3% and the MIC ([4]; read-out: MIC (S. aureus)) was 10 to 15 µM (≈ 3.87 to 5.8 µg/mL). The “Average inhibition %, biofilms viability” value ([4]; 5 µM) was 28.3 ± 16.5%, the “Average inhibition %, planktonic cells viability” value ([4]; 5 µM) was 23.5 ± 26.1% and the “Average inhibition %, biofilms viability” value ([4]; 10 µM) was 64 ± 29.7%. The “Average inhibition %, planktonic cells viability” value ([4]; 10 µM) was 33.9 ± 57%, the “Average inhibition %, biofilms viability” value ([4]; 15 µM) was 99.1 ± 1% and the “Average inhibition %, planktonic cells viability” value ([4]; 15 µM) was 99.7 ± 0%. For the same compound, the “Average inhibition %, biofilms viability” value ([4]; 25 µM) was 99.1 ± 1.4% and the “Average inhibition %, planktonic cells viability” value ([4]; 25 µM) was 99.7 ± 0.1%.
